Values of other authors as cited in patent publication US20170128362A1, “APPLICATION OF LARGE-DOSE GLYCERINUM IN FREEZE-THAWING TOLERABLE LIPID EMULSION” (Shengyang Pharmaceutical University, priority 2014, published 2017).

Conditions: 0.005% sodium oleate

## CCCCCCCC/C=C\CCCCCCCC(=O)[O-].[Na+] [sodium oleate]
  hemolysis: 100%
